Results on 4 compounds are retold here after article PMC12298629, “New Derivatives of Caracasine Acid with Anti-Leukemic Activity and Limited Effectiveness in Spheroid Cultures” (Pharmaceuticals, 2025).

One test has as its system BJ LD. As to the kind of experiment: Cytotoxic MTS assay, BJ LD fibroblasts (doxorubicin-resistant). The conditions noted are these: Fibroblast, doxorubicin-resistant human fibroblasts, 72 h, median of five assays. The test is classed as cell-based. An excerpt: (§1) The cancer cell lines used in the cytotoxic assays were acquired from the American Tissue Culture Collection (ATCC) (Manassas, VA, USA) and maintained as described previously. The MRC-5 and BJ human fibroblasts were used as non-tumoral control cells. The (MRC-5 LD and BJ LD) are also human fibroblast cell lines resistant to doxorubicin. […] The Raji and Ramos cell lines correspond to B-cell leukemia. Other cells, such as U2OS, represent a child osteosarcoma, while HCT116 is a colorectal tumor cell line. (HCT116p53^−/−, Horizon Discovery Ltd., Cambridge, UK) is a similar cell line with its p53 gene knocked down, serving as a model of human cancer frequently associated with a poor prognosis. The cells were maintained in Nunc/corning 80 cm^2 plastic tissue culture flasks and cultured in a cell culture medium according to ATCC or Horizon recommendations (McCoy, DMEM/RPMI 1640 with 5 g/L glucose, 2 mM glutamine, 100 U/mL penicillin, […] streptomycin, 10% fetal calf serum, and NaHCO3). The compounds were freshly dissolved in DMSO. The final concentration of DMSO was 0.01% in the cell culture.
(§2) The in vitro cytotoxicity of compounds (1–7) was assessed using the standard 3-(4,5-dimethyl-thiazol-2yl)-5-(3-carboxymethoxyphenyl)-2-(sulfophenyl)-2H-tetrazolium (MTS). The assay was performed at the Institute of Molecular and Translational Medicine using a robotic platform (High-ResBiosolutions, Beverly, MA, USA). Cell suspensions were prepared and diluted according to the specific cell type and the expected target cell density (25,000–35,000 cells/mL, based on cell growth characteristics). An automatic pipettor (30 μL) was used to add cells into 384-well microtiter plates. All tested compounds were dissolved in 100% DMSO, and four-fold dilutions of the intended test concentrations were added in 0.15 μL aliquots at time zero to the microtiter plate wells by the echo acoustic non-contact liquid handler Echo550 (Labcyte, San Jose, CA, USA). The assays were accomplished in technical duplicates and at least three biological replicates. The cells were incubated with the tested compound for 72 h at 37 °C in a 5% CO2 atmosphere with 100% humidity. At the end of the incubation period, cells were assayed using the MTS test. Aliquots (5 μL) of the MTS stock solution were pipetted into each well and incubated for 1–4 h. After this incubation period, the optical density (OD) was measured at 490 nm using an Envision reader (PerkinElmer, Waltham, MA, USA). Tumor cell survival (TCS) was calculated using the following equation: TCS = (OD drug-exposed well/mean OD control wells) × 100%. The IC50 value, representing the concentration of the compound lethal to 50% of the tumor cells, was calculated from the corresponding dose-response curves using Dotmatics software (Updated version 2022, London, UK). After three days of incubation on the cancer cell lines and normal fibroblasts, the […] (IC50) were obtained. Five assays were performed for each cell line. The standard error of the assays was lower than 10%, as assessed by the triplicate assays.
Background: Formazan colour is commonly taken as a measure of viable cells.

The next test concerns MRC-5 LD. As to the kind of experiment: Cytotoxic MTS assay, MRC-5 LD fibroblasts (doxorubicin-resistant). The test is classed as cell-based. As to conditions: MRC5, doxorubicin-resistant human fibroblasts, 72 h, median of five assays.
Source text: as §1, §2

The test system of another test is K562. As to the kind of experiment: Cytotoxic MTS assay, K562. It counts as cell-based. The conditions noted are these: K562, human leukemia cell line, 72 h, median of five assays.
Source text: as §1, §2

For another test, the system named is RAJI. Kind of test: Cytotoxic MTS assay, Raji. The test is classed as cell-based. As to conditions: Raji, human leukemia cell line, 72 h, median of five assays.
Source text: as §1, §2

The test system of a further test is RAMOS. As to the kind of experiment: Cytotoxic MTS assay, Ramos. It counts as cell-based. As to conditions: Ramos, human leukemia cell line, 72 h, median of five assays.
Source text: as §1, §2

A further test has as its system U2OS. As to the kind of experiment: Cytotoxic MTS assay, U2OS 2D. It counts as cell-based. As to conditions: U2OS, human tumors 2D, 72 h, median of five assays.
Source text: as §1, §2

The next test has as its system HCT116 par spheroids. Kind of test: Spheroid viability assay (CellTiter-Glo 3D), HCT116 parental spheroids. It counts as cell-based. As to conditions: HCT-116, human tumors spheroids, 72 h, 100 pM to 50 μM. As to the method: (§3) Spheroid culture aims to analyze the drug’s effect on complex structures resembling solid tumors. The spheroids were prepared using the specific nonadherent plates for spheroid formation (Nunc Sphera, Thermo Fisher, Waltham, MA, USA) according to the simple protocol outlined by the manufacturer. The cell lines HCT116 parental, HCT116KOTp53, A549, and U2OS were cultured at a density of 2500 cells per well using medium containing 10% fetal calf serum and antibiotics: McCoy’s 5A medium for HCT116, F-12K (Kaighn’s Modified) for A549, and Dulbecco’s Modified Eagle Medium (DMEM). The cells were grown in culture for 48 h as recommended by the manufacturer and as described by Das et al. and Muñoz-Garcia et al..
(§4) The cell viability of the treated spheroids was assessed using the kit CellTiter-Glo 3D (Promega Corporation, Madison, WI, USA). The kit is designed to measure ATP as an indicator of viability, generating a luminescent readout that is more sensitive than colorimetric or fluorescence-based methods. The spheroids were cultivated with compounds at concentrations ranging from 100 pM to 50 μM in triplicate for 72 h, and the luminescence was measured using the Enspire apparatus (PerkinElmer). A standard curve was performed for each analysis as recommended by the manufacturer.
A general note: In ATP-based viability assays light output follows the ATP content of the culture.

In the next test the test system is U2OS spheroids. As to the kind of experiment: Spheroid viability assay (CellTiter-Glo 3D), U2OS spheroids. As to conditions: U2OS, human tumors spheroids, 72 h, 100 pM to 50 μM. It counts as cell-based. How it is done: as §3, §4
The next test deals with caspase 8. As to the kind of experiment: Caspase 8 activity in lysed HCT116 cells from 2D and spheroids. It counts as cell-based, human. As to conditions: 12 h; for Caspase 8 activity, 2D culture: HCT116 parental, 25 µM; for Caspase 8 activity, spheroid culture: HCT116 parental spheroids, 25 µM (cisplatin 15 μM). How it is done: (§5) The assay was designed to evaluate the impact of various compounds on caspase activity using a standardized quantity of cell protein lysates after 12 h of incubation. The parental line HCT116 served as the basis for these experiments. Three distinct caspases were examined employing the fluorescence assay kits from Calbiochem (San Diego, CA, USA), specifically a fluorometric caspase-8 assay kit and a fluorimetric caspase-3 assay kit. Additionally, the fluorometric kit from Abcam was utilized to assess caspase-9 activity. Due to the variations in protocols for each caspase, separate plates were prepared for each assay, encompassing both two-dimensional (2D) cell cultures and spheroids. The compound concentrations were established at 25 µM, and assays were conducted in quintuplicate following a 12-h incubation period. The cells were harvested from the plates using the standard trypsin-EDTA solution (Merck Sigma Aldrich, Saint Louis, MO, USA), washed, and counted before lysis, as described in each kit. Cell processing adhered to the guidelines provided by the respective companies, and protein concentration was calculated and standardized using the standard BCA assay. Fluorescent readings were captured using the Enspire apparatus (Perkin-Elmer, MA, USA). Positive controls utilized included staurosporine at a concentration of 5 μM and cisplatin at 15 μM. The kits provided their own standards; however, to normalize all the readings between cultures, types, and treatments, the results were expressed as a percentage relative to the positive control, staurosporine, in 2D culture. […] A total of three separate assays were conducted for each caspase.

Another test concerns caspase 9. As to the kind of experiment: Caspase 9 activity in lysed HCT116 cells from 2D and spheroids. It counts as cell-based, human. The conditions noted are these: 12 h; for Caspase 9 activity, 2D culture: HCT116 parental, 25 µM; for Caspase 9 activity, spheroid culture: HCT116 parental spheroids, 25 µM (cisplatin 15 μM). As to the method:
as §5

For `C=C(C)C1CCC23CC(CCC2C1(C)CCC(=O)O)C(C)C3=O` (single isomer, unassigned; ent-3) [Compound 5, Ent-3,4-Seco-15-Oxo-Kaur-4(19)-en-3-Oic Acid], the IC50 with BJ LD, in the test with MRC-5 LD, in the test with K562, in the test with RAJI, in the test with RAMOS and in the test with U2OS was > 50 µM in each case. The IC50 with HCT116 par spheroids and in the test on U2OS spheroids was > 50 µM throughout. In addition, the “Caspase 8 activity, 2D culture” value with caspase 8 is given as “did not induce caspase activity”. Besides, in the test on caspase 9, the “Caspase 9 activity, 2D culture” value is on record as “did not induce caspase activity”.

On to `C=C(C)C1CCC23CC(CCC2C1(C)CCC(=O)OC(C)=O)C(C)C3=O` (single isomer, unassigned; ent-3) [Compound 6, Ent-3,4-Seco-15-Oxo-Kaur-4(19)-en-Acetic Anhydride], for which the half-maximal inhibitory concentration (IC50) in the test on BJ LD, with MRC-5 LD, in the test with K562, in the test with RAJI, with RAMOS and in the test on U2OS was > 50 µM each time. The IC50 in the test on HCT116 par spheroids and in the test on U2OS spheroids was > 50 µM throughout. For the same compound, the “Caspase 8 activity, 2D culture” value in the test on caspase 8 is recorded as “did not induce caspase activity”. Moreover, the “Caspase 9 activity, 2D culture” value in the test on caspase 9 is on record as “did not induce caspase activity”.

Regarding `C=C1C(=O)C23CCC(C(=C)C)C(C)(CCC(=O)OC)C2CCC1C3` (stereo not shown) [Compound 2, Caracasine], the half-inhibitory concentration (IC50) (in general, the concentration at which inhibition is half-maximal) in the test on BJ LD amounted to 7.42 µM; in the test with MRC-5 LD it was 6.36 µM; in the test with K562 it was 3.29 µM; in the test with RAJI it was 1.45 µM; in the test on RAMOS it was 0.96 µM; with U2OS, 3.19 µM. Besides, the IC50 in the test on HCT116 par spheroids and in the test with U2OS spheroids was > 50 µM throughout. Moreover, the “Caspase 8 activity, spheroid culture” value in the test on caspase 8 is given as “absence of caspase activity”. The “Caspase 9 activity, spheroid culture” value in the test with caspase 9 is on record as “absence of caspase activity”.

Consider `C=C1C(=O)C23CCC(C(=C)C)C(C)(CCC(=O)OC(C)=O)C2CCC1C3` (stereo not shown) [Compound 7, Caracasine-Acetic Anhydride], for which the IC50 in the test with BJ LD was 7.63 µM; with MRC-5 LD, 5.53 µM; in the test on K562 it was 4.6 µM; in the test on RAJI, 2.21 µM; in the test on RAMOS, 0.96 µM; with U2OS, 2.21 µM. Further, the IC50 in the test on HCT116 par spheroids and in the test with U2OS spheroids was > 50 µM each time. Further, in the test on caspase 8, the “Caspase 8 activity, spheroid culture” value is “absence of caspase activity”. Also, the “Caspase 9 activity, spheroid culture” value in the test on caspase 9 was “absence of caspase activity”.
